# Test results taken from patent EP0144996A2, “Substituted spiro pyridine derivatives, pharmaceutical compositions containing them and processes for the preparation of such compounds and compositions” (SCHERING CORPORATION, priority 1983, dated 1985).
# Experiments:
# [1] = tested on: anaphylactic bronchospasm; assay: Inhibition of anaphylactic bronchospasm in sensitized guinea pigs with antigen-induced bronchoconstriction; format: in vivo; conditions: oral dose of 5 mg/kg
# Protocol: The anti-allergy method of this invention is identified by tests which measure a compound's inhibition of anaphylactic bronchospasm in sensitized guinea pigs having antigen-induced bronchoconstriction. […] The compounds are effective non-adrenergic, non-anticholinergic antianaphylactic agents. When administered orally they are active at doses from about 0.1 to 50 mg/kg of body weight; when administered parenterally, e.g., intravenously, the compounds are active at dosages of from about 0.01 to 5 mg/kg body weight; when administered by inhalation (aerosol or nebulizer) the compounds are active at dosages of about 0.1 to 5 mg per puff, and one to four puffs may be taken every 4 hours.
# [2] = tested on: allergen-induced histamine release; assay: Allergen-induced histamine release from sensitized guinea pig tissue; format: cell-based
# [3] = tested on: allergen-induced histamine release; assay: Allergen-induced histamine release from sensitized human tissue; format: cell-based
structure (smiles),measurement,setting,value
"O=C1c2cccnc2N(c2ccccc2)C(=O)C12CCCCO2 (stereo not drawn) [1-phenyl-3',4',5',6'-tetrahydro-spiro[1,8-naphthyridine-3,2'-(2H)pyran]-2,4-dione]",inhibition of anaphylactic bronchospasms,[1],inhibit anaphylactic bronchospasms
same,inhibition of allergen-induced histamine release,[2],inhibit allergen-induced histamine release
same,inhibition of allergen-induced histamine release,[3],inhibit allergen-induced histamine release
